The values that follow come from patent publication EP0649467B1, “SELF-STABILIZED OLIGONUCLEOTIDES AS THERAPEUTIC AGENTS” (HYBRIDON, Inc., priority 1992, dated 1994).

For orientation: IC50 means the concentration that gives 50% inhibition.

Where two headings read alike, the source gives them in different places.

In one data set the test system is H9 lymphocytes. The data set can be described thus: Cytotoxicity by trypan blue dye exclusion. Set-up: dose or concentration left out as unconfirmed. Format: cell-based. The source says: Cytotoxicity of oligonucleotides was studied by culturing the cells with increasing concentration of oligonucleotide and by the trypan blue dye exclusion method.
A further data set concerns HIV-1. The data set can be described thus: Anti-HIV activity: p24 expression by ELISA in HIV-1 infected H9 lymphocytes. Format: cell-based. Set-up: Inhibition of p24 (%): dose or concentration left out as unconfirmed. The settings on record: for Inhibition of p24 (%): three days; for IC50: Human immunodeficiency virus 1, Lymphocyte, p24 expression, positive control. How it is done:
H9 lymphocytes were infected with HIV-1 virions (≡0.01 - 0.1 TCID50/cell) for one hour at 37°C. After one hour, unadsorbed virions were washed and the infected cells were divided among wells of 24 well plates. To the infected cells, an appropriate concentration (from stock solution) of oligonucleotide was added to obtain the required concentration in 2 ml medium. In a positive control experiment ddC or AZT was added. The cells were then cultured for three days. At the end of three days, supernatant from the infected culture was collected and measured for p24 expression by ELISA. The level of expression of p24 was compared between oligonucleotide treated and untreated (no drug) infected cells.
On the technique in general: ELISA stands for enzyme-linked immunosorbent assay.

Where [1] appears, read: Experiment 1, concentration 0.04.
Setting [2] is: Experiment 1, concentration 0.08.
[3] abbreviates: Experiment 1, concentration 0.2.
Setting [4] is: Experiment 1, concentration .0016.
The mark [5] stands for this setting: Experiment 2, concentration 0.0016.
Where [6] appears, read: Experiment 2, concentration 0.008.
[7] abbreviates: Experiment 2, concentration 0.04.
The mark [8] stands for this setting: Experiment 2, concentration 0.2.

For the molecule `Cc1cn([C@H]2C[C@H](N=[N+]=[N-])[C@@H](CO)O2)c(=O)[nH]c1=O` [AZT], the “% Cell Survival” value in the data set on H9 lymphocytes (setting [1]) came out at 98%; in the data set with H9 lymphocytes (setting [2]) it was 104%; in the data set with H9 lymphocytes (setting [3]) it was 95%; in the data set on H9 lymphocytes (setting [4]) it was 108%; in the data set with H9 lymphocytes (setting [5]) it was 103%; in the data set on H9 lymphocytes (setting [6]), 101%. The “% Cell Survival” value is listed as 98% in the data set on H9 lymphocytes (setting [7]) and 93% with H9 lymphocytes (setting [8]). Further, the “Inhibition of p24 (%)” value is 73% with HIV-1 (setting [1]); 44% in the data set on HIV-1 (setting [2]); 90% with HIV-1 (setting [3]); 6% in the data set on HIV-1 (setting [4]); 6% with HIV-1 (setting [5]); 5% in the data set on HIV-1 (setting [6]). For the same molecule, the results for the “Inhibition of p24 (%)” value in the data set on HIV-1 (setting [7]) and with HIV-1 (setting [8]) were 65% and 89%, respectively. Moreover, the IC50 with HIV-1 (Experiment 1, read-out: IC50) was 0.037 µM; in the data set on HIV-1 (Experiment 2), 0.1 µM.
